{"source": "patent US20240189257A1", "about": "“COMPOSITIONS AND METHODS FOR MANAGING NEPHROPATHY” (SAMI-SABINSA GROUP LIMITED, priority 2021, published 2024)", "system": "High fat diet + STZ + DOCA (diabetic nephropathy)", "experiment": "Renal lipids (triglyceride, total cholesterol, free fatty acid, phospholipids) by automated analyzer in high fat diet + STZ + DOCA model", "format": "in vivo, rats", "procedure": "After 1 week of adaptive feeding, the rats were randomly divided into normal control and experimental groups. The experimental group received high-fat diet (consisting of 70% standard laboratory chow, 15% carbohydrates, 10% lard, and 5% yolk powder) to establish an insulin resistance model, while the normal control group receive standard chow. After 4 weeks of high-fat diet feeding, the experimental group rats were induced with diabetes by a single intraperitoneal injection of STZ (35 mg/kg, dissolved in 0.01 M sodium citrate buffer, pH 4.4), while the Normal group rats were injected with the same dose of citrate buffer. At the 7th day after STZ injection, the blood glucose levels of rats were measured to confirm the successful establishment of the model. Rats with blood glucose level ≥250 mg/dl is indicative of the establishment of the disease and selected for further pharmacological studies. All rats were fed their respective diets until the end of the study. Rats were also given 1% NaCl (salt) to drink and on day 28, 0.75 μg […] (DOCA) was subcutaneously infused. Blood pressure and urinary albumin were measured to establish renal hypertension.\nAll the experimental rats were assigned to the specific treatment group and test drugs were administered orally once daily between 9:00 and 11:00 a.m., continuously for 12 weeks.\nAt the end of the treatment, all rats were be housed in individual metabolic cages for 24 h to collect urine samples and then sacrifice. Urine samples were centrifuged at 4000×g for 5 min to separate the supernatant. Blood samples are acquired by a small puncture to retro orbital plexus and centrifuged at 4000×g for 10 min at 4° C. to separate the plasma for subsequent experiments. Serum was also separated from the blood for analysis in which anti-coagulant was not added. Thereafter, the kidneys were immediately harvested and weighed. The right kidneys were washed in ice-cold saline solution and fixed in 4% neutral formaldehyde solution for histological examination, whereas the renal cortex of the left kidneys was rinsed with cold isotonic saline and subsequently stored at −70° C. until biochemical estimations.\nMeasurement of renal lipids viz. Triglyceride, Total cholesterol, Free Fatty Acid, Phospholipids was also done by automated analyzer.", "key": {"[1]": {"details": "decrease against High fat diet + STZ + DOCA group"}, "[2]": {"details": "renal lipids, high fat diet + STZ + DOCA rats, p.o. 12 weeks"}}, "data": [{"smiles": "CN(C)C(=N)N=C(N)N", "note": "[Metformin]", "values": [{"measurement": "Free fatty acids, % decrease (↓)", "setting": "[1]", "value": 47.5, "unit": "%↓"}, {"measurement": "Phospholipids, % decrease (↓)", "setting": "[1]", "value": 55.2, "unit": "%↓"}, {"measurement": "Total Cholesterol, % decrease (↓)", "setting": "[1]", "value": 30, "unit": "%↓"}, {"measurement": "Triglycerides, % decrease (↓)", "setting": "[1]", "value": 17.2, "unit": "%↓"}, {"measurement": "Free fatty acids", "setting": "[2]", "value": "25.34 ± 1.88", "unit": "mg/mL"}, {"measurement": "Phospholipids", "setting": "[2]", "value": "4.33 ± 0.023", "unit": "mg/mL"}, {"measurement": "Total Cholesterol", "setting": "[2]", "value": "40.33 ± 3.50", "unit": "mg/dL"}, {"measurement": "Triglycerides", "setting": "[2]", "value": "122.67 ± 3.56", "unit": "mg/mL"}]}]}
